These results are taken from US9931328B2, “Topical retinoid compositions” (DR. REDDY'S LABORATORIES, LTD., priority 2015, dated 2018).

The nature of data set [1]: Excipients compatibility study with tazarotene. In kind it is physicochemical. How it is done:
Excipient compatibility study for tazarotene was carried out with various pharmaceutically acceptable excipients. The tazarotene was tested in a set of compatibility screening studies with the excipients in closed vials containing tazarotene. The excipients physical mixture were incubated in ovens with and without moisture at 60° C. or 40° C./75% RH for 4 weeks.

Data set [2] is described as follows: Multiple dose bioavailability study versus TAZORAC 0.1% cream. In kind it is in vivo, healthy male subjects. Conditions: after topical application of test or reference product. How it is done: The study was a single-center, randomized, multiple dose, laboratory-blinded, open-label, 3-arm, parallel design in healthy male subjects. The following investigational products were to be administered: 1) Test product: composition of example 1 (tazarotene 0.1%) and 2) reference: TAZORAC cream 0.1%. Following were treatment arms: 1) Treatment 1: Test product applied twice daily, in the morning and evening, 12 hours apart; 2) Treatment 2: Test product applied once daily, in the morning; and 3) Treatment 3: Reference product applied once daily, in the morning. For each study arm (n=16), approximately 5 g of the Test or Reference product was to be applied to the subjects face, neck, shoulders, upper chest and upper back (total approximately equivalent to 15% body surface area (BSA)) over 14 consecutive days (Days 1 to 14). Blood sample were collected time to time as per the schedule of the study.

Molecules are shown by their SMILES.

As for `CCOC(=O)c1ccc(C#Cc2ccc3c(c2)C(C)(C)CCS3)nc1` [tazarotene, Tazarotene], the excipient compatibility entry was “incompatible” in data set [1] (with benzyl alcohol, lactic acid, polysorbate 80); “compatible” in data set [1] (with excipients of examples 1, 2, 3 (carbomer type A and B, cocobetaine, sodium lauryl sarcosinate, stearyl alcohol, cetyl alcohol, glycerine, vitamin E TPGS, gluconolactone, BHT, parabens)). The “concentrations of the parent compound detected in plasma samples” value in data set [2] was “Very low concentrations”.
